Data on three compounds can be found in patent US20190183927A1, “MEDICAL AND NUTRITIONAL COMPOSITIONS AND METHODS OF USE” (Sulfilatec, Inc., priority 2016, published 2019).

“Also recorded” adds a separate entry of the source.

Data set [1] concerns acute heart failure patients. To be noted: cited from earlier work.
Data set [2] relates to salt sensitive Dahl rats. The data set can be described thus: Survival of salt sensitive Dahl rats on high salt (8% NaCl) diet with or without NaBr, 10 week study. It counts as in vivo, rat. The protocol:
Control rats received AIN76A without supplemental chloride or bromide. 9 rats per study arm.
Dahl rats were administered a base diet of AIN76A with 8% NaCl, while a parallel arm was administered AIN76A with 8% NaCl and 300 mg of NaBr per kg of food. Mortality events were counted over the 10 week study.

The subject of data set [3] is spontaneously hypertensive rat (SHR). Briefly: 10 week daily dietary Br^− administration in SHR disease model (heart weight, survival, urinary protein). It counts as in vivo. The protocol: (FIG. 5 A-B) Heart and kidney weights from 10 week repeat dosing study in SHR model. Br^− administered daily via diet, with AIN-76a as base diet. WKY served as genetic control. Both kidneys per animal weighed together. […] (FIG. 5C-D) Heart and kidney weights from panels A-B normalized to body weight. […] (FIG. 5E) Rats were administered a diet of AIN76A with or without 10 mg NaBr per kg feed (“SHR” and “SHR+Br” study arms, […]). Survival probability was calculated between SHR rats receiving dietary Br— and SHR rats receiving AIN76A control diet over a 10 week study period. As a second control, Wistar Kyoto (WKY) rats were fed AIN76A control diet over the same period. 8 rats per study arm.
Eight SHR animals received AIN76A diet for 10 weeks while 8 SHR animals received AIN76A supplemented with 10 mg NaBr/kg diet.

Data set [4] has the same test system. Briefly: Cardiac interstitial fibrosis, Masson's Trichrome staining, SHR. The settings on record: 10 mg NaBr per kg AIN-76a, 10 weeks, p<0.0001. It counts as in vivo. As for the experimental part:
(§1) AIN-76A was base diet for all animals. […] Fibrosis determined from 5 μm tissue sections stained with Masson's Trichrome. […] Approximately 25-30 images were collected and processed per animal.
Following conclusion of the in vivo study, rat hearts were formalin-fixed, paraffin-embedded, and 5 μm-thick sections were obtained for histochemical analysis.

For data set [5], the system named is salt sensitive Dahl rats. Briefly: Cardiac interstitial fibrosis, Masson's Trichrome staining, Dahl rats on high salt diet. It counts as in vivo, rat. The settings on record: 300 mg NaBr per kg AIN-76a+8% NaCl, 10 weeks, p<0.0001. The protocol:
as §1

Data set [6] concerns spontaneously hypertensive rat (SHR). Briefly: Blood pressure and heart rate (tail cuff) after single IP administration of NaBr in SHR. It counts as in vivo. The settings on record: single IP 154.5 μg NaBr per kg. As for the experimental part: (A) In 10 week-old male SHR, single administration of Br^− reduced systolic and diastolic blood pressures compared to saline control. […] (C-D) Measured values for systolic (C) and diastolic (D) blood pressure, denoting statistical significance where achieved. 154.5 μg NaBr per kg rat body weight injected via IP. n=8 in Br Treatment group, =5 in saline control. BP & HR measured via tail cuff. *:p<0.05, T test.
(§2) The inventors next asked whether Br^− exerts any short-term activity in addition to the improved cardiac fibrosis noted after 10 weeks administration. Returning to the SHR preclinical model of disease, the inventors specifically asked whether Br^− administration modulates certain biomarkers associated with cardiovascular disease at one day post-administration. To this end, Br^− was administered to 8 SHR via intraperitoneal (IP) injection with an estimated 0.154 μg NaBr per gram body weight. For control, 8 SHR were administered saline via IP injection containing an estimated 4 ng NaBr per gram body weight. […] Moreover, the inventors believe that Br^− achieves its cardiovascular and renal therapeutic activities in part via modulation of natriuretic peptide signaling.

The subject of data set [7] is brain natriuretic peptide (BNP). Briefly: Serum BNP by ELISA after single IP administration of NaBr in SHR. It counts as in vivo, rat. The settings on record: single IP 154.5 μg NaBr per kg, one day post-administration, p<0.05. As for the experimental part: 154.5 μg NaBr per kg rat body weight injected via IP. n=8 in Br Treatment group, =5 in saline control. Baseline serum collection occurred two days prior to treatment. *: p<0.05, T test.
as §2

For data set [8] the following is noted: in vivo; cited from earlier work.
For data set [9] the following is noted: dogs that do not respond to an initial course of Br^− treatment; cited from earlier work.
The conditions of data set [10]: humans, in some circumstances, due to renal reabsorption; cited from earlier work.
Data set [11] in a line: Serum Br^− concentration in Dahl rats after 10 weeks on diet (mass spectrometry).
Experimental: (FIG. 2A) Serum Br^− concentrations from rats fed a daily diet over 10 weeks of “AIN-76A”, “AIN-76A+8% NaCl”, “AIN-76A+Br”, or “AIN-76A+8% NaCl+Br”. […] The two diets containing 8% NaCl (eg. “AIN-76A+8% NaCl” and “AIN-76A+8% NaCl+Br”) were fed to Dahl rats while the remaining two diets (eg. “AIN-76A” and “AIN-76A+Br”) were fed to SHR, as indicated in panel A. Serum Br^− measurements were determined using mass spectrometry.
Thus, Dahl rats were fed a diet supplemented with 8% NaCl (AIN76A base diet) over the course of 10 weeks.
To test the invention, another group of Dahl rats were administered AIN76A supplemented with 8% NaCl and 300 mg NaBr per kg of food. Considering that the rat body weights increased from around 300 g to around 400 g over the course of the study, and assuming that the rats ate a relatively constant amount of 25 g of food per day, the daily consumption of Br^− ranged from approximately 14.6 to 19.4 mg Br^− per kg body weight, in accordance with the invention.
A short description of data set [12]: Serum Br^− concentration in spontaneously hypertensive rats (SHR) after 10 weeks on diet, safety.
Experimental: (FIG. 2A) Serum Br^− concentrations from rats fed a daily diet over 10 weeks of “AIN-76A”, “AIN-76A+8% NaCl”, “AIN-76A+Br”, or “AIN-76A+8% NaCl+Br”. Salt sensitive Dahl rats as well as Spontaneously Hypertensive Rats (SHR) were used in these studies. The two diets containing 8% NaCl (eg. “AIN-76A+8% NaCl” and “AIN-76A+8% NaCl+Br”) were fed to Dahl rats while the remaining two diets (eg. “AIN-76A” and “AIN-76A+Br”) were fed to SHR, as indicated in panel A. Serum Br^− measurements were determined using mass spectrometry.
Rats were administered 10 mg of NaBr per kg of AIN76A diet for 10 weeks. At the end of the study, serum Br^− levels in Br-treated rats were compared to serum Br^− levels in SHR on AIN76A as well as Wistar rats on AIN76A.
Where [13] appears, read: acute decompensated heart failure (Sackner-Bernstein et al. 2005).

As for `CC[C@H](C)[C@@H]1NC(=O)[C@H](CCCNC(=N)N)NC(=O)[C@H](CC(=O)O)NC(=O)[C@H](CCSC)NC(=O)[C@H](CCCNC(=N)N)NC(=O)CNC(=O)CNC(=O)[C@H](Cc2ccccc2)NC(=O)[C@@H](NC(=O)[C@H](CO)NC(=O)[C@H](CO)NC(=O)[C@H](CCCNC(=N)N)NC(=O)[C@H](CCCNC(=N)N)NC(=O)[C@H](CC(C)C)NC(=O)[C@@H](N)CO)CSSC[C@@H](C(=O)N[C@@H](CC(N)=O)C(=O)N[C@@H](CO)C(=O)N[C@@H](Cc2ccccc2)C(=O)N[C@@H](CCCNC(=N)N)C(=O)N[C@@H](Cc2ccc(O)cc2)C(=O)O)NC(=O)CNC(=O)[C@H](CC(C)C)NC(=O)CNC(=O)[C@H](CO)NC(=O)[C@H](CCC(N)=O)NC(=O)[C@H](C)NC(=O)CNC1=O` [carperitide], in data set [1] (acute heart failure patients in Japan (Matsue et al. 2015)), the in-hospital mortality entry was “increased in-hospital mortality”.
Turning to nesiritide, in [1] (setting [13]), the mortality result is recorded as “increased mortality” and the renal function result is “worsening renal function”.
In the case of `[Br-].[Na+]` [Br^−, sodium bromide], the “survival compared to High Salt alone (log rank test)” value in the data set with salt sensitive Dahl rats [2] (9 rats per arm, p<0.001) is given as “significantly improved survival”. Besides, in the data set with salt sensitive Dahl rats [2] (AIN76A+8% NaCl with or without 300 mg NaBr per kg feed, 10 weeks), the survival probability was 67%. The “heart weight (absolute)” value in data set [3] (10 mg NaBr per kg AIN-76a, 10 weeks, vs SHR on AIN-76a alone, p<0.05) is listed as “significantly reduced; also recorded: Statistically significant reduction”. Also, the “treatment-induced mortality or electrolyte disturbances” value in data set [3] (10 mg NaBr/kg diet, 10 weeks) is recorded as “No treatment-induced mortality or electrolyte disturbances”. Moreover, the “survival probability among groups” value in data set [3] (10 week study, 8 rats per arm) is “no statistical difference in survival”. Moreover, the “heart weight normalized to body weight” value in data set [3] (10 weeks) is recorded as “this trend was preserved; also recorded: Trends observed in absolute weights are preserved”. In addition, the “urinary microprotein/creatinine ratio (urinary protein levels)” value in data set [3] (after one day on study diet, persisted to end of study) was “significantly lower; also recorded: significantly reduced”. Further, the “cardiac fibrosis (Masson's Trichrome blue staining)” value in [4] is on record as “dramatic reduction in blue staining; also recorded: less cardiac fibrosis”; with salt sensitive Dahl rats [5], “less cardiac fibrosis”. In data set [6] (one day post-administration, vs saline control), the systolic blood pressure entry was “statistically significant reductions; also recorded: reduced”. Moreover, in [6] (p=0.052), the heart rate result was “possible reduction”. In addition, the diastolic blood pressure entry in [6] (vs saline control) was “reduced”. Also, the “serum concentration of BNP peptide” value in [7] is “statistically significant increase; also recorded: significantly modulated”. For the same compound, the “circulating Br^− level at which the anti-epilepsy effect occurs” value in data set [8] was more than 6 mM. The “therapeutic serum Br^− for sedative effect” value in [9] is “above 25 mM”. Moreover, the half-life in data set [10] was not below 170 h. Besides, the “mean serum Br^−” value in [11] (10 weeks on diet, end of study) is 246.50 µM; in [12] (10 mg NaBr per kg AIN76A diet, 10 weeks), 281.7 µM. For the same compound, the results for the “toxicity assessment of serum Br^− concentrations” value in data set [11] (daily diet over 10 weeks) and in [12] (daily diet over 10 weeks) were “well below those levels required to induce bromide-associated toxicity” and “below the toxicity threshold”, respectively.

Broadly, the half-life is how long it takes for the measured level to halve.
